Read-outs that look alike come from different tables or passages of the source.
Key:
[1] = Cytotoxicity in HeLa cells without addition of OC43 virus (in parallel); settings: human, HeLa cells, without OC43 virus
in vitro = settings: human
[2] = system: human beta-coronavirus OC43; test: OC43 Coronavirus Assay in HeLa cells (antiviral, cytopathic effect, cell-titer-glo); assay type: cell-based; settings: Betacoronavirus 1, OC43, HeLa, Table B, OC43 coronavirus in HeLa cells, read-out: EC50
[3] = system: SARS-CoV-2 B.1.1.7 lineage; test: microbe, parasite or virus in culture; assay type: cell-based; settings: Severe acute respiratory syndrome coronavirus 2, Table C, SARS-CoV-2 B.1.1.7 in A549-dual_ACE2_TMPRSS2 cells, read-out: A549-dual_ACE2_TMPRSS2 (EC50)
SARS-Cov-2 3CLpro = SARS-Cov-2 3CLpro (Severe acute respiratory syndrome coronavirus 2, UniProt P0DTD1); test: biochemical; settings: Table A, class symbols, read-out: SARS-Cov-2 (IC50)

Structure (SMILES)	CC50 at 6 days [1]	CC50 (in vitro)	EC50 ([2]; class symbols)	EC50 ([3]; class symbols)	IC50 (SARS-Cov-2 3CLpro)	EC50 ([3]; cells given as a bound)	EC50 ([2]; cells given as a bound)
CC(C)C[C@@H](C(=O)N1C[C@@]2(C[C@H]1C#N)Oc1cc(F)c(F)cc1NC2=O)N(C)C(=O)[C@H](C)NC(=O)C(F)(F)F [Compound 48]	> 10 µM	> 1 µM	0.1 to 1 µM	0.1 to 1 µM	< 0.02 µM	–	–
CN(C(=O)C1(NC(=O)C(F)(F)F)CCCCC1)[C@@H](CC1CC1)C(=O)N1C[C@@]2(C[C@H]1C#N)Oc1cccnc1NC2=O [Compound 173]	> 10 µM	> 1 µM	1 to 10 µM	–	0.2 to 2 µM	> 1 µM	–
CC(C)C[C@@H](C(=O)N1C[C@]2(C[C@H]1C#N)OC(=O)Nc1ccccc12)N(C)C(=O)c1cc2c(F)cc(F)cc2[nH]1 [Example 5, N—((S)-1-((4R,5'S)-5′-cyano-2-oxo-1,2-dihydrospiro[benzo[d][1,3]oxazine-4,3′-pyrrolidin]-1′-yl)-4-methyl-1-oxopentan-2-yl)-4,6-difluoro-N-methyl-1H-indole-2-carboxamide]	> 10 µM	> 1 µM	–	1 to 10 µM	0.2 to 2 µM	–	> 1 µM
CC(C)C[C@@H](C(=O)N1C[C@@]2(C[C@H]1C#N)Oc1cccnc1NC2=O)N(C)C(=O)[C@H](C)NC(=O)C(F)(F)F [Compound 65]	> 10 µM	> 1 µM	0.1 to 1 µM	0.1 to 1 µM	< 0.02 µM	–	–
CC(C)C[C@@H](C(=O)N1C[C@]2(CC(C)NC2=O)C[C@H]1C#N)N(C)C(=O)[C@H](C)NC(=O)C(F)(F)F (stereo partly drawn) [Compound 21, (2S)—N-((2S)-1-((3S,5S)-3-cyano-8-methyl-6-oxo-2,7-diazaspiro[4.4]nonan-2-yl)-4-methyl-1-oxopentan-2-yl)-N-methyl-2-(2,2,2-trifluoroacetamido)propanamide]	> 10 µM	> 1 µM	0.1 to 1 µM	0.1 to 1 µM	< 0.02 µM	–	–
CC(C)OC(=O)N[C@@H](C)C(=O)N(C)[C@@H](CC1CC1)C(=O)N1C[C@@]2(C[C@H]1C#N)Oc1cc(F)cc(F)c1NC2=O [Compound 120, isopropyl ((S)-1-(((S)-1-((2R,5'S)-5′-cyano-5,7-difluoro-3-oxo-3,4-dihydrospiro[benzo[b][1,4]oxazine-2,3′-pyrrolidin]-1′-yl)-3-cyclopropyl-1-oxopropan-2-yl)(methyl)amino)-1-oxopropan-2-yl)carbamate]	> 10 µM	> 1 µM	0.1 to 1 µM	0.1 to 1 µM	< 0.02 µM	–	–
CN(C(=O)[C@H](CC1CC1)NC(=O)C(F)(F)F)[C@@H](CC1CC1)C(=O)N1C[C@]2(C[C@H]1C#N)C(=O)NCc1ccccc12 (single isomer, unassigned) [Compound 122]	> 10 µM	> 1 µM	< 0.1 µM	< 0.1 µM	< 0.02 µM	–	–
CN(C(=O)[C@@H](Cc1ccc(F)cc1)NC(=O)C(F)(F)F)[C@@H](CC1CC1)C(=O)N1C[C@@]2(C[C@H]1C#N)Oc1ncccc1NC2=O [Compound 205]	> 10 µM	> 1 µM	< 0.1 µM	< 0.1 µM	< 0.02 µM	–	–
CC(C)C[C@@H](C(=O)N1C[C@]2(CC(c3ccccc3)=NNC2=O)C[C@H]1C#N)N(C)C(=O)c1cc2c(F)cc(F)c(F)c2[nH]1 [Example 30, N—((S)-1-((3S,5R)-3-cyano-6-oxo-9-phenyl-2,7,8-triazaspiro[4.5]dec-8-en-2-yl)-4-methyl-1-oxopentan-2-yl)-4,6,7-trifluoro-N-methyl-1H-indole-2-carboxamide]	> 10 µM	> 1 µM	0.1 to 1 µM	0.1 to 1 µM	< 0.02 µM	–	–
C[C@@H](OC(C)(C)C)[C@H](NC(=O)C(F)(F)F)C(=O)N(C)[C@@H](CC1CC1)C(=O)N1C[C@@]2(C[C@H]1C#N)Oc1cccnc1NC2=O [Compound 196]	> 10 µM	> 1 µM	< 0.1 µM	0.1 to 1 µM	< 0.02 µM	–	–
C[C@@H](NC(=O)C(F)(F)F)C(=O)N(C)[C@@H](CC1CC1)C(=O)N1C[C@@]2(C[C@H]1C#N)Oc1cc(F)cc(F)c1NC2=O [Compound 83]	> 10 µM	> 1 µM	0.1 to 1 µM	< 0.1 µM	0.02 to 0.2 µM	–	–
C[C@H](NC(=O)C(F)(F)F)C(=O)N(C)[C@@H](COC(C)(C)C)C(=O)N1C[C@@]2(C[C@H]1C#N)Oc1cc(F)cc(F)c1NC2=O [Compound 115, (S)—N—((S)-3-(t-butoxy)-1-((2R,5'S)-5′-cyano-5,7-difluoro-3-oxo-3,4-dihydrospiro[benzo[b][1,4]oxazine-2,3′-pyrrolidin]-1′-yl)-1-oxopropan-2-yl)-N-methyl-2-(2,2,2-trifluoroacetamido)propenamide]	> 10 µM	> 1 µM	0.1 to 1 µM	0.1 to 1 µM	< 0.02 µM	–	–
CN(C(=O)[C@H](CC1CC1)NC(=O)C(F)(F)F)[C@@H](CC1CC1)C(=O)N1C[C@@]2(C[C@H]1C#N)Oc1cc(F)cc(F)c1NC2=O [Compound 55]	> 10 µM	> 1 µM	< 0.1 µM	< 0.1 µM	< 0.02 µM	–	–
CN(C(=O)[C@H](CC1CC1)NC(=O)C1(F)CC1)[C@@H](CC1CC1)C(=O)N1C[C@@]2(C[C@H]1C#N)Oc1ncccc1NC2=O [Compound 185]	> 10 µM	> 1 µM	< 0.1 µM	0.1 to 1 µM	< 0.02 µM	–	–
CN(C(=O)[C@H](CC(C)(C)C)n1cc(C2CC2)nn1)[C@@H](CC1CC1)C(=O)N1C[C@@]2(C[C@H]1C#N)Oc1cc(F)cc(F)c1NC2=O [Compound 150]	> 10 µM	> 1 µM	< 0.1 µM	< 0.1 µM	< 0.02 µM	–	–
CC(C)C[C@@H](C(=O)N1C[C@@]2(C[C@H]1C#N)OCc1ccccc1NC2=O)N(C)C(=O)c1cc2c(F)cc(F)cc2[nH]1 [Example 4, N—((S)-1-((3R,5'S)-5′-cyano-2-oxo-1,5-dihydro-2H-spiro[benzo[e][1,4]oxazepine-3,3′-pyrrolidin]-1′-yl)-4-methyl-1-oxopentan-2-yl)-4,6-difluoro-N-methyl-1H-indole-2-carboxamide]	> 10 µM	> 1 µM	–	1 to 10 µM	0.02 to 0.2 µM	–	> 1 µM
CN(C(=O)c1cc2c(F)cc(F)c(F)c2[nH]1)[C@@H](CC1CC1)C(=O)N1C[C@@]2(C[C@H]1C#N)Oc1cc(F)cc(F)c1NC2=O [Compound 74]	> 10 µM	> 1 µM	–	0.1 to 1 µM	0.02 to 0.2 µM	–	> 10 µM
CC(C)C[C@@H](C(=O)N1C[C@]2(C[C@H]1C#N)C(=O)Nc1ccccc1N2C)N(C)C(=O)[C@H](C)NC(=O)C(F)(F)F [Example 42, (S)—N—((S)-1-((3R,5S)-5-cyano-1′-methyl-3′-oxo-3′,4′-dihydro-1′H-spiro[pyrrolidine-3,2′-quinoxalin]-1-yl)-4-methyl-1-oxopentan-2-yl)-N-methyl-2-(2,2,2-trifluoroacetamido) propanamide]	> 10 µM	> 1 µM	–	0.1 to 1 µM	0.02 to 0.2 µM	–	> 10 µM
CN(C(=O)[C@H](CC1CC1)NC(=O)C(F)(F)F)[C@@H](CC(C)(C)C)C(=O)N1C[C@@]2(C[C@H]1C#N)Oc1ccccc1CNC2=O [Compound 164]	> 10 µM	> 1 µM	< 0.1 µM	< 0.1 µM	< 0.02 µM	–	–
CN(C(=O)[C@H](CC1CC1)NC(=O)C(F)(F)F)[C@@H](CC1CC1)C(=O)N1C[C@@]2(CC1C#N)Oc1c(C#N)cccc1NC2=O (stereo partly drawn) [Compound 124]	> 10 µM	> 1 µM	< 0.1 µM	0.1 to 1 µM	< 0.02 µM	–	–
CN(C(=O)[C@H](CC1CC1)NC(=O)C(F)(F)F)[C@@H](CC1CC1)C(=O)N1C[C@@]2(C[C@H]1C#N)Oc1cc(F)cc(C#N)c1NC2=O (single isomer, unassigned) [Example 35]	> 10 µM	> 1 µM	1 to 10 µM	0.1 to 1 µM	0.02 to 0.2 µM	–	–

Source: patent US20240199647A1, “ANTI-VIRAL COMPOUNDS” (Aligos Therapeutics, Inc., priority 2022, published 2024)
